This note sets out measurements from patent publication US20250205300A1, “PLANT-BASED COMPOSITIONS AND METHODS FOR HORMONE SIGNALING, BLOOD GLUCOSE CONTROL, APPETITE CONTROL, AND WEIGHT MANAGEMENT” (Alpine Biotech, LLC, priority 2023, published 2025).

Molecules are shown by their SMILES.

Assay [1] concerns preclinical diabetes model. Briefly: Plasma GLP-1 levels in preclinical diabetes model (FIG. 2). The format is in vivo.
The test system of another assay is Human NCI-H716 cells. Briefly: Secretion of GLP-1 in Human NCI-H716 cells (FIG. 1). The assay is classed as cell-based. An excerpt: FIG. 1 is a graph illustrating the effects of compositions in Human NCI-H716 cells according to an implementation.

Regarding `COc1ccc2cc3[n+](cc2c1OC)CCc1cc2c(cc1-3)OCO2` [Berberine], in assay [1], the “plasma GLP-1 levels” value is recorded as “modulate plasmas GLP-1 levels”. The “secretion of GLP-1” value in the assay on Human NCI-H716 cells was “modulate the secretion of GLP-1 to various degrees”. As for `O=C(O[C@@H]1Cc2c(O)cc(O)cc2O[C@@H]1c1cc(O)c(O)c(O)c1)c1cc(O)c(O)c(O)c1` [epigallocatechin gallate], in the assay with Human NCI-H716 cells, the “secretion of GLP-1” value is reported as “modulate the secretion of GLP-1 to various degrees”. As to `CC/C=C\C/C=C\C/C=C\CCCCCCCC(=O)O` [α-linolenic acid], the “plasma GLP-1 levels” value in assay [1] was “modulate plasmas GLP-1 levels”. Further, the “secretion of GLP-1” value with Human NCI-H716 cells is “modulate the secretion of GLP-1 to various degrees”.
